Measurements published in patent US11419870B2, “Intermittent dosing of MDM2 inhibitor” (Novartis AG, priority 2014, dated 2022).
“And” between values parts separate entries of the source, which are not always exact repeats. Equal values may be shown once.

Columns and labels:
[1] = system: Cleaved Caspase-3; experiment: Caspase-3 activation in SJSA-1 tumor (immunohistochemistry); format: in vivo, nude rat; conditions: higher single dose; 24 h post-treatment
Procedure: (§1) All tissues were processed to FFPE according to routine procedures and following fixation, rat sternum was decalcified in Citrate/EDTA buffer for 5 days, with buffer exchange every 24 h. Sections were cut at 3 μm using a microtome. p21 and cleaved Caspase-3 immunohistochemistry was performed on a Ventana Discovery XT automated immunostainer using the OmniMap anti Mouse or Rabbit HRP secondary reagent and the ChromoMap DAB chromogen system (Ventana/Roche Diagnostics GmbH, Mannheim, Germany). Antigen retrieval was done by using Cell Conditioning Discovery CC1 (Ventana/Roche Diagnostics) at mild (95° 8 min+100° 20 min, for cleaved Caspase-3) or standard (95° 8 min+100° 36 min, for p21) conditions. The primary antibody was applied manually at the desired dilution in Dako antibody diluent, followed by incubation for 1 hour at room temperature. Corresponding negative controls were incubated with AbD only. Counterstaining of sections was done using hematoxylin (Ventana/Roche Diagnostics). After the automated staining run, slides were dehydrated in a graded series of ethanol, cleared in xylene and mounted with Pertex mounting medium.

[2] = system: SJSA-1 tumor; experiment: Efficacy on SJSA-1 tumor-bearing nude rat (tumor volume); format: in vivo
Procedure: Subcutaneous tumors were induced by concentrating 1.0×10^7 SJSA-1 cells in 50% Matrigel® and injecting in the right flank of Harlan nude rats. Efficacy experiment could start 14 days post cell injection. […] The animals were treated either at a high dose (20 mg/kg i.v. or 27 mg/kg p.o.) once every 3 weeks (q3w) or at a high dose (15 mg/kg p.o.) followed 24 h later by a daily low dose treatment (3 mg/kg p.o., 2 weeks on/2 weeks off).
The tumor volume (TVol) and body-weight (BW) of the animal were measured three times per week allowing calculation at any particular time-point relative to the day of initiation of treatment (day 0) of the percentage change in TVol (Δ% TVol). Tumor response was quantified by the change in tumor volume (endpoint minus starting value in mm^3) as the T/C i.e.
[formula] In the case of a tumor regression or to assess the percentage of change in TVol, the tumor response was quantified by the percentage of regression of the starting TVol, ie

[3] = Tolerability in SJSA-1 tumor-bearing nude rat (body weight, survival); format: in vivo
Procedure: Subcutaneous tumors were induced by concentrating 1.0×10^7 SJSA-1 cells in 50% Matrigel® and injecting in the right flank of Harlan nude rats.
[formula] Similarly, the body-weight (BW) of the animal was measured three times per week allowing calculation at any particular time-point relative to the day of initiation of treatment (day 0) of the percentage change in BW (Δ % BW).

[4] = system: white blood cells (WBC), neutrophils and platelets; experiment: White blood cells, neutrophils and platelets count (Sysmex); format: in vivo, nude rat
Excerpt: The white blood cells (WBC), neutrophils and platelets were counted using a Sysmex (XT-2000i).
Blood was collected into commercially prepared EDTA coated microtubes (BD Microtainer, cat #365975).

[5] = system: p21, Mdm2 and cleaved Caspase-3 in jejunum and bone marrow (sternum); experiment: Immunohistochemistry of host tissues after i.v. treatment; format: in vivo, rat; conditions: i.v. 20 mg/kg
Procedure: Sections were cut at 3 μm using a microtome. p21 and cleaved Caspase-3 immunohistochemistry was performed on a Ventana Discovery XT automated immunostainer using the OmniMap anti Mouse or Rabbit HRP secondary reagent and the ChromoMap DAB chromogen system (Ventana/Roche Diagnostics GmbH, Mannheim, Germany). […] The primary antibody was applied manually at the desired dilution in Dako antibody diluent, followed by incubation for 1 hour at room temperature. Corresponding negative controls were incubated with AbD only. Counterstaining of sections was done using hematoxylin (Ventana/Roche Diagnostics). After the automated staining run, slides were dehydrated in a graded series of ethanol, cleared in xylene and mounted with Pertex mounting medium.

[6] = system: bone marrow; experiment: Bone marrow depletion and recovery after i.v. treatment (sternum sections); format: in vivo, rat; conditions: i.v. 20 mg/kg
Procedure: as §1

[7] = system: melanoma patient derived xenograft (PDX); experiment: Efficacy in melanoma patient derived xenograft bearing rat (per os); format: in vivo; conditions: 27 mg/kg q3w per os
Excerpt: The same experiments were repeated with melanoma PTX bearing rat.

[8] = system: SJSA-1 tumor; experiment: Efficacy on SJSA-1 tumor-bearing nude rat (tumor volume); format: in vivo; conditions: for tumor regression in average: one week post treatment
[9] = i.v. q3w 20 mg/kg, after the second treatment
[10] = i.v. q3w 20 mg/kg, three weeks post first treatment
[11] = i.v. q3w 13.7 mg/kg, week 1 post treatment
[12] = i.v. q3w 13.7 mg/kg, week 2 post treatment
[13] = i.v. q3w 18.2 mg/kg, week 1 post treatment
[14] = i.v. q3w 18.2 mg/kg, week 2 post treatment
[15] = i.v. q3w 18.2 mg/kg, week 3 post treatment
[16] = i.v. q3w 18.2 mg/kg, week 5 post treatment
[17] = i.v. q3w 18.2 mg/kg, week 6 post treatment
[18] = p.o. q3w 27 mg/kg, before the second treatment

With COc1ncc(-c2nc3c(n2C(C)C)[C@H](c2ccc(Cl)cc2)N(c2cc(Cl)cn(C)c2=O)C3=O)c(OC)n1 [Compound A, (S)-5-(5-Chloro-1-methyl-2-oxo-1,2-dihydro-pyridin-3-yl)-6-(4-chloro-phenyl)-2-(2,4-dimethoxy-pyrimidin-5-yl)-1-isopropyl-5,6-dihydro-1H-pyrrolo[3,4-d]imidazol-4-one] the “caspase-3 activation in tumor” value [1] was “strong caspase-3 activation”, the tumor regression [2, 9] was 100% and the “rats with partial response (more than 50% regression)” value [2, 10] was 2. The “tumor regression on average” value [2, 10] was 6%, the SJSA-1 tumor regression ([2]; p.o. q3w 27 mg/kg, after two cycles (after the second treatment)) was 27% and the “ABW (%)” value [3, 11] was 2.7 ± 0.9%. The “ABW (%)” value [3, 12] was 7.5 ± 1.0%, the “ABW (%)” value [3, 13] was 2.5 ± 2.6% and the “ABW (%)” value [3, 14] was 9.1 ± 1.9%. For the same compound, the “ABW (%)” value [3, 15] was 11.9 ± 2.7%, the “ABW (%)” value [3, 16] was 10.6 ± 2.3% and the “ABW (%)” value [3, 17] was 5.9 ± 7.9%. For the same compound, the “sacrifice because of excessive body weight (BW) loss” value ([3]; single i.v. 20 mg/kg, day 9 post treatment) was “One rat had to be sacrificed”, the “recovery of WBCs, neutrophils and platelets” value ([4]; i.v. q3w 18.2 mg/kg, day 21 post second treatment) was “only partially recovered” and the “WBCs, neutrophils and platelets” value ([4]; i.v. q3w 20 mg/kg, after the first treatment) was “dramatic decrease”. For the same compound, the “WBCs, neutrophils and platelets” value [4, 9] was “extremely low level close to 0”, the “recovery of WBCs, neutrophils and platelets” value ([4]; i.v. q3w 20 mg/kg, day 21 post treatment, most rats) was “only partially recovered” and the “WBCs, neutrophils and platelets” value ([4]; i.v. q3w 13.7 and 18.2 mg/kg, after the first treatment) was “strong decrease”. The “recovery of WBCs, neutrophils and platelets” value ([4]; i.v. q3w 13.7 and 18.2 mg/kg, day 21 post treatment) was “fully recovered”, the “recovery of WBCs and platelets” value ([4]; p.o. q3w 20 mg/kg, before the second treatment) was “fully recovered” and the “recovery of WBCs” value [4, 18] was “only partially”. The recovery of platelets [4, 18] was “fully recovered”, the “WBCs, neutrophils and platelets” value ([4]; p.o. q3w 20 and 27 mg/kg) was “dose-dependent decrease” and the “time of maximum increase in p21, Mdm2 and cleaved Caspase-3” value ([5]; jejunum and bone marrow (sternum)) was 3 h. For the same compound, the “time of return of all staining to baseline” value ([5]; post treatment) was 7 days, the bone marrow state ([6]; 14 days post treatment) was “severe bone marrow depletion” and the bone marrow recovery ([6]; day 22) was “partial recovery”. For the same compound, the “efficacy of intermittent dosing” value [7] was “showed efficacy”, the tumor cell density ([8]; higher single dose, 48 and 72 h post-treatment) was “dramatic decrease” and the tumor growth ([8]; i.v. 13.7 mg/kg, after two weeks) was “re-growing”. For the same compound, the “tumor regression in average” value ([8]; i.v. 13.7 mg/kg) was 66%, the “tumor regression in average” value ([8]; i.v. 18.2 mg/kg) was 88% and the tumor regression ([8]; i.v. 18.2 mg/kg, three weeks post treatment) was 36%. The CR [8, 11] was 1/6, the “ΔTvol (%)” value [8, 11] was −66 ± 9% and the CR [8, 12] was 0/6. For the same compound, the “ΔTvol (%)” value [8, 12] was 4 ± 37%, the CR [8, 13] was 0/5 and the “ΔTvol (%)” value [8, 13] was −80 ± 2%. For the same compound, the CR [8, 14] was 2/5, the “ΔTvol (%)” value [8, 14] was −79 ± 11% and the CR [8, 15] was 2 and 2/5. The “ΔTvol (%)” value [8, 15] was −36 ± 37%, the CR [8, 16] was 2/5 and the “ΔTvol (%)” value [8, 16] was 22 ± 63%. The CR [8, 17] was 2/5, the “ΔTvol (%)” value ([8]; i.v. q3w 18.2 mg/kg, week 6 post treatment (after the second treatment)) was 118% and 118 ± 104% and the “rats with complete response (100% regression)” value [8, 10] was 3. The “rats with progressive disease” value [8, 10] was 1, the “rats with stable disease” value [8, 10] was 1 and the “effect of combining two dosing schedules” value ([8]; intermittent (15 mg/kg once) plus daily dosing (1.5 mg/kg)) was “highly synergistic effect”. The tumor regression ([8]; p.o. q3w 20 mg/kg, three weeks post first treatment) was 27%, the SJSA-1 tumor regression ([8]; p.o. q3w 27 mg/kg, after one cycle (three weeks post first treatment)) was 88% and the “response of regrown tumors to retreatment” value ([8]; retreated i.v. at 15 mg/kg) was “still sensitive”. The “tumors with incomplete response and regrowth” value ([8]; single i.v. 20 mg/kg) was 2 of 11, the tumor regression ([8]; single i.v. 20 mg/kg, 14 days post treatment) was 92% and the “complete SJSA-1 tumor response (100% regression), share of treated rat” value ([8]; single i.v. 20 mg/kg, for 42 days) was 82%.
